The supplement of paper PMC10307832

Assays:
Experiment in all cases: relative viability (nuclei count vs DMSO), 5 days (fraction); higher = more cells survive
Alpelisib + Luminespib = compound: Cc1nc(NC(=O)N2CCC[C@H]2C(N)=O)sc1-c1ccnc(C(C)(C)C(F)(F)F)c1 [Alpelisib] + CCNC(=O)c1noc(-c2cc(C(C)C)c(O)cc2O)c1-c1ccc(CN2CCOCC2)cc1 [Luminespib] (partner 0.01 µM)
In short: (§1)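 The day after seeding in 1536-well plates, lung cancer cell lines were treated by pin tool with a single drug, or with a fixed anchor-drug dose together with five library-drug doses (not always all listed) in √10 steps. After 5 days, a combined fix-and-stain solution (final 0.05% Triton X-100, 1% formaldehyde, 1 ug/ml Hoechst) was added. Nuclei counted on 4× images gave relative viability as treated counts over vehicle counts, reported as the median of duplicate plates.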

Vemurafenib + OSI-027 = compound: CCCS(=O)(=O)Nc1ccc(F)c(C(=O)c2c[nH]c3ncc(-c4ccc(Cl)cc4)cc23)c1F [Vemurafenib] + COc1cccc2cc(-c3nc([C@H]4CC[C@H](C(=O)O)CC4)n4ncnc(N)c34)[nH]c12 [OSI-027] (partner 0.5 µM)
In short: as §1

Alpelisib + Trametinib = compound: Cc1nc(NC(=O)N2CCC[C@H]2C(N)=O)sc1-c1ccnc(C(C)(C)C(F)(F)F)c1 [Alpelisib] + CC(=O)Nc1cccc(-n2c(=O)n(C3CC3)c(=O)c3c(Nc4ccc(I)cc4F)n(C)c(=O)c(C)c32)c1 [Trametinib] (partner 0.02 µM)
In short: as §1

OSI-027 + AZD7762 = compound: COc1cccc2cc(-c3nc([C@H]4CC[C@H](C(=O)O)CC4)n4ncnc(N)c34)[nH]c12 [OSI-027] + NC(=O)Nc1cc(-c2cccc(F)c2)sc1C(=O)N[C@H]1CCCNC1 [AZD7762] (partner 0.2 µM)
In short: as §1

Cell Line	relative viability (Alpelisib + Luminespib; first compound 0.04 µM)	relative viability (Alpelisib + Luminespib; first compound 0.1265 µM)	relative viability (Alpelisib + Luminespib; first compound 0.4 µM)	relative viability (Alpelisib + Luminespib; first compound 1.265 µM)	relative viability (Alpelisib + Luminespib; first compound 4 µM)	relative viability (Vemurafenib + OSI-027; first compound 0.03162 µM)	relative viability (Vemurafenib + OSI-027; first compound 0.1 µM)	relative viability (Vemurafenib + OSI-027; first compound 0.3162 µM)	relative viability (Vemurafenib + OSI-027; first compound 1 µM)	relative viability (Alpelisib + Trametinib; first compound 0.04 µM)	relative viability (Alpelisib + Trametinib; first compound 0.1265 µM)	relative viability (Alpelisib + Trametinib; first compound 0.4 µM)	relative viability (Alpelisib + Trametinib; first compound 1.265 µM)	relative viability (Alpelisib + Trametinib; first compound 4 µM)	relative viability (OSI-027 + AZD7762; first compound 0.01 µM)	relative viability (OSI-027 + AZD7762; first compound 0.03162 µM)	relative viability (OSI-027 + AZD7762; first compound 0.1 µM)	relative viability (OSI-027 + AZD7762; first compound 0.3162 µM)	relative viability (OSI-027 + AZD7762; first compound 1 µM)
A-427	0.909	0.881	1.09	0.83	0.92	0.488	0.404	0.453	0.466	0.717	0.624	0.681	0.484	0.501	0.676	0.52	0.557	0.541	0.399
NCI-H1703	–	–	–	–	–	–	–	–	–	–	–	–	–	–	–	0.0974	–	0.127	0.119
HCC-366	–	–	–	–	–	0.886	0.843	0.674	0.418	0.337	0.289	0.233	0.138	0.13	0.393	0.325	0.216	0.285	0.217
NCI-H661	0.979	0.969	1.02	0.928	0.968	0.673	0.559	0.658	0.688	0.618	0.593	0.645	0.52	0.462	–	–	–	–	–
NCI-H2126	0.946	0.848	0.854	0.776	0.667	0.606	0.591	0.856	0.651	0.545	0.504	0.526	0.416	0.381	0.975	0.954	0.998	0.868	0.819
LCLC-97TM1	0.852	0.707	0.705	0.279	0.23	0.49	0.612	0.713	0.43	0.194	0.167	0.165	0.133	0.159	0.245	0.301	0.371	0.276	0.18
NCI-H2405	0.736	0.463	0.658	0.486	0.418	0.611	0.637	–	0.621	0.509	0.641	0.549	0.369	0.381	0.701	0.836	0.699	0.598	0.376
COR-L 105	0.768	0.565	0.956	0.59	0.86	0.649	–	–	0.582	0.422	0.458	0.493	0.37	0.447	–	–	–	–	–
BEN	0.341	0.101	0.474	0.332	0.159	0.27	0.267	–	0.265	0.909	1.17	1.17	0.863	1.03	0.698	0.604	0.435	0.464	0.463
HCC-827	0.703	0.594	0.586	0.406	0.215	0.754	–	0.766	0.704	0.547	0.504	0.492	0.401	0.33	0.194	0.201	0.195	0.205	0.214
NCI-H3122	0.077	0.0664	0.0978	0.0788	0.0851	0.932	0.893	1.04	0.899	0.201	0.221	0.172	0.181	0.136	1.06	1.09	0.995	0.946	0.486
LK-2	0.139	0.159	0.196	0.191	0.176	0.194	0.21	0.228	0.158	0.633	0.829	0.738	0.384	0.365	0.538	–	0.277	0.16	0.112
HCC-15	0.252	0.292	0.336	0.423	0.145	0.648	0.73	–	0.52	0.354	0.37	0.366	0.248	0.211	1.14	1.21	1.19	1.28	0.986
NCI-H1755	0.352	0.415	0.418	0.42	0.395	0.696	0.687	0.586	0.632	0.852	0.726	0.718	0.72	0.668	0.442	0.432	0.574	0.507	0.396
EMC-BAC-2	1.24	1.03	1.16	0.932	0.707	0.38	0.382	0.22	0.329	0.818	–	0.892	0.529	0.599	1.05	1.14	0.833	0.791	0.63
NCI-H838	0.429	0.387	0.274	0.221	0.299	0.367	0.404	–	0.436	0.419	0.483	0.515	0.405	0.421	0.923	0.838	0.855	0.806	0.801
NCI-H1650	0.208	0.192	0.24	0.19	0.18	–	0.448	–	0.537	0.688	0.487	0.638	0.505	0.544	–	–	–	–	–
NCI-H1975	0.227	0.204	0.199	0.184	0.155	0.647	0.631	0.4	0.564	0.364	0.315	0.317	0.258	0.177	0.708	0.697	0.545	0.609	0.591
NCI-H522	1.09	1.21	1.13	0.881	0.981	0.778	0.635	0.638	0.697	0.673	0.756	0.683	0.681	0.542	0.807	0.89	0.68	0.672	0.612
NCI-H1437	1.16	1.09	1.2	1.07	1.26	0.857	0.85	0.855	0.875	0.434	0.492	0.539	0.382	0.304	1.11	1.02	1.14	1	0.566

Cell Line	relative viability (Alpelisib + Luminespib; first compound 0.04 µM)	relative viability (Alpelisib + Luminespib; first compound 0.1265 µM)	relative viability (Alpelisib + Luminespib; first compound 0.4 µM)	relative viability (Alpelisib + Luminespib; first compound 1.265 µM)	relative viability (Alpelisib + Luminespib; first compound 4 µM)	relative viability (Vemurafenib + OSI-027; first compound 0.03162 µM)	relative viability (Vemurafenib + OSI-027; first compound 0.1 µM)	relative viability (Vemurafenib + OSI-027; first compound 0.3162 µM)	relative viability (Vemurafenib + OSI-027; first compound 1 µM)	relative viability (Alpelisib + Trametinib; first compound 0.04 µM)	relative viability (Alpelisib + Trametinib; first compound 0.1265 µM)	relative viability (Alpelisib + Trametinib; first compound 0.4 µM)	relative viability (Alpelisib + Trametinib; first compound 1.265 µM)	relative viability (Alpelisib + Trametinib; first compound 4 µM)	relative viability (OSI-027 + AZD7762; first compound 0.01 µM)	relative viability (OSI-027 + AZD7762; first compound 0.03162 µM)	relative viability (OSI-027 + AZD7762; first compound 0.1 µM)	relative viability (OSI-027 + AZD7762; first compound 0.3162 µM)	relative viability (OSI-027 + AZD7762; first compound 1 µM)
NCI-H1666	0.973	1.03	1.12	0.921	0.965	0.845	0.802	0.98	0.929	0.799	0.841	0.903	0.784	0.71	0.837	0.707	0.763	0.766	0.585
NCI-H647	0.256	0.203	0.157	0.117	0.168	0.636	0.629	0.477	0.564	0.44	0.473	0.523	0.348	0.481	0.402	0.558	0.362	0.314	0.348
NCI-H1623	0.487	0.374	0.477	0.385	0.417	0.405	–	0.521	0.419	–	–	–	–	–	–	–	–	–	–
NCI-H23	0.225	–	0.244	0.201	0.215	0.566	0.543	0.547	0.349	0.287	0.354	0.252	0.286	0.233	0.231	0.259	0.26	0.253	0.215
NCI-H1915	0.738	0.725	0.829	0.643	0.766	0.585	0.639	0.471	0.533	0.307	0.304	0.312	0.285	0.26	0.728	0.792	0.72	0.592	0.653
HOP-62	0.943	0.957	1.04	0.83	0.956	0.702	0.938	0.678	0.751	0.353	0.376	0.434	0.384	0.384	0.611	0.47	0.33	0.587	0.284
NCI-H2342	0.762	0.696	0.686	0.568	0.488	0.621	0.561	0.577	0.643	0.754	0.854	0.671	0.604	0.67	0.444	0.426	0.553	0.414	0.346
NCI-H520	0.18	0.203	0.212	0.245	0.216	0.236	0.282	0.327	0.214	0.62	0.574	0.549	0.491	0.429	–	–	–	–	–
COR-L23	0.678	0.748	0.696	0.62	0.477	0.662	0.777	0.579	0.646	0.534	0.484	0.579	0.378	0.353	–	–	–	–	–
SW 1573	0.175	0.215	0.285	0.198	0.115	0.582	0.591	0.564	0.464	0.562	0.586	0.553	0.363	0.388	–	–	–	–	–
ABC-1	0.432	0.932	0.554	0.228	0.391	0.417	0.435	0.539	0.474	–	–	–	–	–	0.886	0.764	0.728	0.555	0.602
NCI-H1563	0.488	0.479	0.404	0.503	0.462	0.693	0.757	0.734	0.723	–	–	–	–	–	–	–	–	–	–
NCI-H2228	0.142	0.132	0.0885	0.101	0.144	0.548	0.634	0.634	0.474	0.415	0.536	0.399	0.314	0.123	–	–	–	–	–
SK-LU-1	0.199	0.222	0.202	0.175	0.152	0.315	0.342	0.245	0.269	0.474	0.566	0.53	0.392	0.345	–	–	–	–	–
SK-MES-1	0.675	0.561	0.733	0.527	0.464	0.56	0.456	0.548	0.444	0.59	0.523	0.534	0.334	0.385	–	–	–	–	–
NCI-H1648	–	–	–	–	–	0.261	–	0.335	0.259	0.489	0.496	0.472	0.296	0.245	0.813	0.572	–	0.705	0.667
NCI-H2023	0.644	0.606	0.679	0.505	0.4	0.316	0.293	0.408	0.316	0.532	0.452	0.538	0.287	0.208	–	–	–	–	–
NCI-H2009	0.995	0.999	1.14	1.06	1.08	0.606	0.483	0.389	0.325	0.264	0.276	0.28	0.285	0.224	–	–	–	–	–
HCC-78	–	–	–	–	–	0.366	0.322	0.649	0.398	0.578	0.779	0.816	0.458	0.53	0.62	0.638	0.488	0.499	0.354
